Tests used:
3CL^pro = molecular target: T1, 3CL^pro (Severe acute respiratory syndrome coronavirus 2, UniProt P0DTD1); test: FRET-based 3CL^pro enzyme activity assay; format: biochemical, SARS-CoV2
T1 construct: A 3CL^pro (Cat. #78042-1) assay kit (BPS Bioscience, CA, USA) was used; purchased BPS Bioscience 78042-1
Experimental: FIG. 1 is a scheme of the fluorogenic 3CL^pro protease enzymatic assay. The fluorescence of Edans in the C-terminal of the peptide substrate (Dabcyl-[…]-Edans, the cleavage site is in between the amino acids Q and S) is quenched by the Dabcyl in the N-terminus without the 3CL^pro enzymatic cleavage. After the protease is added and cleaves the peptide substrate, the quencher molecule Dabcyl can no longer quench the fluorophore Edans which results in an increase in fluorescence emission at 460 nm. The intensity of this fluorescence is proportional to the protease activity. FRET: fluorescence resonance energy transfer.
3CL^pro inhibition percentage of different test groups is determined by “(Isubstrate+3CLpro−Itest_group)/(Isubstrate+3CLpro−Isubstrate)×100%, where “I” is the observed intensity of blue fluorescence light (at 460 nm); Isubstrate and Isubstrate+3CLpro are supposed to give the lowest and the highest intensity, respectively, where the substrate is a peptide labeled by a quencher and fluorophore at its N- and C-termini (as shown in FIG. 1). Specifically, the fluorescence of Edans in the C-terminal of the peptide (Dabcyl-[…]-Edans; the cleavage site is in between the amino acids Q and S) is quenched by the Dabcyl in the N-terminus in the absence of the 3CL^pro enzymatic cleavage. Norvancomycin (Nv) is the interface blocker here while the FDA drugs boceprevir (Bc) and GC376 (in its clinical trials) are the active-site inhibitors. The results are shown by the average value of two replicates.
The FRET-based assay was designed for 3CL^pro activity assay and explained in FIG. 1. The 3CL^pro enzyme assay was developed in a 96-well black microplate with a total volume of 50 μL. 30 μL of 0.5 ng/μL enzyme in a reaction buffer was added into each well, followed by the addition of 10 μL substrate solution to a final concentration of 40 μM. Enzymatic reaction gave fluorescence whose intensity was measured after incubation for 4 hours at 37° C. with slow shaking in a microtiter plate reading fluorimeter (BioTek Synergy HTX multi-mode reader, VT, US) with Ex=340 nm/Em=460 nm. […]

[1] = test system: SARS-CoV2 hCoV-19/Taiwan/NTU13/2020; test: Plaque reduction assay in Vero E6 cells; format: cell-based
Vero E6 cells = test: Cytotoxicity assay; format: cell-based
Experimental: (§1) FIGS. 6A and 6B show the cytotoxicity of norvancomycin (NV) and nelfinavir (NF). The percentage of cell survival is determined by obtaining cell viability of Vero E6 cells in the presence of drugs of interest and trace amount of DMSO that help fully dissolve the drug, normalized by Vero E6 cells in the presence of the same concentration of said DMSO, which serves as a control, the cell viability in the absence of the drugs. 50% cytotoxic concentration (CC50) represents the concentration of NV and NF required to reduce cell survival by 50%.
(§2) Cytotoxicity assay was performed using Vero E6 cells described above to determine the cytotoxicity of tested compounds, i.e., norvancomycin and nelfinavir. DMSO, the solvent used to help fully dissolve the drugs of interest, was used as the negative control. The percentage of cell survival and 50% cytotoxic concentration (CC50) were derived.

Cytotoxicity assay = format: cell-based; details: African green monkey, Vero E6 cells
Experimental: as §1, §2

Structure (SMILES)	extra 3CL^pro inhibition vs GC376 alone (3CL^pro; 25 μM norvancomycin in combination with 16 nM GC376) [%]	additional 3CL^pro inhibition (3CL^pro; 50 μM norvancomycin in combination with 25 μM boceprevir) [%]	elevation of 3CL^pro inhibition (3CL^pro; co-used with 25 μM boceprevir at molar ratio 1:1)	suppression of SARS-CoV2 replication ([1]; 40 μM norvancomycin) [%]	CC50 (Vero E6 cells) [µM]	suppression of SARS-CoV2 replication ([1]; 0.9 μM nelfinavir) [%]	suppression of SARS-CoV2 replication ([1]; 1.8 μM nelfinavir) [%]	suppression of SARS-CoV2 replication ([1]; 1.8 μM nelfinavir together with 37.5 μM norvancomycin) [%]	suppression of SARS-CoV2 replication ([1]; 3.6 μM nelfinavir) [%]	suppression of SARS-CoV2 replication ([1]; 3.6 μM nelfinavir and 37.5 μM norvancomycin) [%]	CC50 (Cytotoxicity assay) [µM]	cell survival rate (Vero E6 cells; 1.8 μM nelfinavir) [%]	cell survival rate (Vero E6 cells; 3.6 μM nelfinavir) [%]
CC(C)C[C@@H](N)C(=O)N[C@H]1C(=O)N[C@@H](CC(N)=O)C(=O)N[C@H]2C(=O)N[C@H]3C(=O)N[C@H](C(=O)N[C@H](C(=O)O)c4cc(O)cc(O)c4-c4cc3ccc4O)[C@H](O)c3ccc(c(Cl)c3)Oc3cc2cc(c3O[C@@H]2O[C@H](CO)[C@@H](O)[C@H](O)[C@H]2O[C@H]2C[C@](C)(N)[C@H](O)[C@H](C)O2)Oc2ccc(cc2Cl)[C@H]1O [Norvancomycin]	10	17	around 10%	4	> 100								
Cc1c(O)cccc1C(=O)N[C@@H](CSc1ccccc1)[C@H](O)CN1C[C@H]2CCCC[C@H]2C[C@H]1C(=O)NC(C)(C)C [nelfinavir]						41	35	100	100	100	8.26 ± 0.495	84	69

From patent US12370236B2, “Method and combination for the suppression of COVID-19 virus” (priority 2021, dated 2025)
